The values that follow come from patent US8871681B2, “Herbicidal compositions comprising 4-amino-3-chloro-5-fluoro-6-(4-chloro-2-fluoro-3-methoxyphenyl) pyridine-2-carboxylic acid or a derivative thereof and certain sulfonylureas” (Dow AgroSciences LLC, priority 2012, dated 2014).

Experiment [1] has as its system CASOB (Cassia obtusifolia, sicklepod). As to the kind of experiment: Post-emergence herbicidal activity of mixtures in forage crops, greenhouse (Example IV). It is filed as in vivo, Cassia obtusifolia L. As to conditions: Table 58 (forage), foliar-applied, after approximately 21 days. As to the method:
(§1) Seeds or root cuttings of the desired test plant species were planted in Sun Gro MetroMix® 306 planting mixture, which typically has a pH of 6.0 to 6.8 and an organic matter content of about 30 percent, in plastic pots with a surface area of 126.6 square centimeters (cm^2). When required to ensure good germination and healthy plants, a fungicide treatment and/or other chemical or physical treatment was applied. The plants were grown for 14-60 days in a greenhouse with an approximate 14 hour photoperiod which was maintained at approximately 28° C. during the day and 24° C. during the night. Nutrients and water were added on a regular basis and supplemental lighting was provided with overhead metal halide 1000-Watt lamps as necessary. The plants were employed for testing when they reached the BBCH13 to BBCH23 leaf stage.
(§2) Treatments consisted of the benzyl ester of 4-amino-3-chloro-5-fluoro-6-(4-chloro-2-fluoro-3-methoxy-phenyl)pyridine-2-carboxylic acid (Compound A), formulated as a SC, and a second herbicide alone and in combination.
(§3) A measured aliquot of Compound A was placed in 25 milliliter (mL) glass vial and diluted in a volume of 1.25% (v/v) Agri-dex crop oil concentrated to obtain stock solutions. Compound requirements are based upon a 12 mL application volume at a rate of 187 liters per hectare (L/ha). Spray solutions of the second cereal herbicide and experimental compound mixtures were prepared by adding the stock solutions to the appropriate amount of dilution solution to form 12 mL spray solution with active ingredients in two- and three-way combinations. […]
(§4) The treated plants and control plants were placed in a greenhouse as described above and watered by sub-irrigation to prevent wash-off of the test compounds. After approximately 21 days, the condition of the test plants, as compared with that of the control plants, was determined visually and scored on a scale of 0 to 100 percent where 0 corresponds to no injury and 100 corresponds to complete kill. […]

The test system of experiment [2] is SIDSP (Sida spinosa, prickly sida). Described as above. The format is in vivo, Sida spinosa L. As to conditions: Table 58 (forage), foliar-applied, after approximately 21 days. As to the method:
as §1, §2, §3, §4

In the case of `COc1c(Cl)ccc(-c2nc(C(=O)OCc3ccccc3)c(Cl)c(N)c2F)c1F` [Compound A Benzyl Ester], the “Weed Control CASOB Obs” value in experiment [1] (2.2 gai/ha alone) was determined as 33%; in experiment [1] (4.4 gai/ha alone), 38%. In addition, the figures for the “Weed Control SIDSP Obs” value in experiment [2] (2.2 gai/ha alone) and in experiment [2] (4.4 gai/ha alone) were 77% and 85%, respectively.
